# Assay results as given in ChEMBL document CHEMBL6153133, “Discovery of Diphenyl Ether Derivatives as Novel BKCa Channel Activators: Structure-Activity Relationship, Cryo-EM Complex Structures, and In Vivo Animal Studies” (J Med Chem, 2025).
# Experiments:
# [1] = Clearance in male Sprague-Dawley rat at 10 mg/kg, iv by LC-MS/MS analysis; assay type: ADME, organism-based; conditions: in vivo
# Rattus norvegicus [2] = assay: Reversal of urinary incontinence in male spontaneous hypertensive rat model assessed as decrease in urine frequency at 0.3 mg/kg, ip measured after 3 hrs relative to control; assay type: functional; design: scale not given: the % may be the effect or the level left
# Rattus norvegicus [3] = assay: Reversal of urinary incontinence in male spontaneous hypertensive rat model assessed as decrease in urine frequency at 0.1 mg/kg, ip measured after 3 hrs relative to control; assay type: functional; design: scale not given: the % may be the effect or the level left
# [4] = Half-life in male Sprague-Dawley rat at 10 mg/kg, po by LC-MS/MS analysis; assay type: ADME, organism-based; conditions: in vivo
# [5] = AUClast in male Sprague-Dawley rat at 10 mg/kg, iv by LC-MS/MS analysis; assay type: ADME, organism-based; conditions: in vivo
# [6] = AUClast in male Sprague-Dawley rat at 10 mg/kg, po by LC-MS/MS analysis; assay type: ADME, organism-based; conditions: in vivo
# [7] = Half-life in male Sprague-Dawley rat at 10 mg/kg, iv by LC-MS/MS analysis; assay type: ADME, organism-based; conditions: in vivo
# Rattus norvegicus [8] = assay: Reversal of urinary incontinence in male spontaneous hypertensive rat model assessed as decrease in total urine volume at 1 mg/kg, ip measured after 3 hrs relative to control; assay type: functional; design: scale not given: the % may be the effect or the level left
# [9] = Volume of distribution at steady state in male Sprague-Dawley rat at 10 mg/kg, iv by LC-MS/MS analysis; assay type: ADME, organism-based; conditions: in vivo, read-out: Vdss
# [10] = Cmax in male Sprague-Dawley rat at 10 mg/kg, po by LC-MS/MS analysis; assay type: ADME, organism-based; conditions: in vivo
# [11] = Oral bioavailability in male Sprague-Dawley rat at 10 mg/kg by LC-MS/MS analysis; assay type: ADME, organism-based; conditions: in vivo
# [12] = Tmax in male Sprague-Dawley rat at 10 mg/kg, po by LC-MS/MS analysis; assay type: ADME, organism-based; conditions: in vivo
# [13] = Metabolic stability in rat liver microsomes assessed as parent compound remaining at 1 uM preincubated for 5 mins followed by NADPH addition and measured after 30 mins by LC-MS/MS analysis; assay type: ADME, Microsome; conditions: read-out: Stability
# [14] = Drug metabolism in male Sprague-Dawley rat assessed as glucuronide conjugated metabolite formation at 10 mg/kg, po measured after approximately 4.2 hrs by LC-MS/MS analysis; assay type: ADME, organism-based; conditions: in vivo
# [15] = Permeability of compound at pH 7.4 measured after 4 hrs by GIT-PAMPA assay; assay type: ADME; conditions: read-out: permeability
# [16] = Metabolic stability in human liver microsomes assessed as parent compound remaining at 1 uM preincubated for 15 mins followed by UDPGA addition and measured after 60 mins by LC-MS/MS analysis; assay type: ADME, Microsome; conditions: time 75 min, read-out: Stability
# [17] = Metabolic stability in rat liver microsomes assessed as parent compound remaining at 1 uM preincubated for 15 mins followed by UDPGA addition and measured after 60 mins by LC-MS/MS analysis; assay type: ADME, Microsome; conditions: time 75 min, read-out: Stability
# [18] = target: Calcium-activated potassium channel subunit alpha-1 (Homo sapiens, UniProt Q12791, G803D/N806K); assay: Activation of hyperactive human BKca channel G803D/N806K mutant transfected in human AD-293 cells incubated for 15 mins by Flexstation3 multimode microplate reader analysis; assay type: cell-based
# Chain of Calcium-activated potassium channel subunit alpha-1 (Q12791 whole entry, looked up, stated change not applied): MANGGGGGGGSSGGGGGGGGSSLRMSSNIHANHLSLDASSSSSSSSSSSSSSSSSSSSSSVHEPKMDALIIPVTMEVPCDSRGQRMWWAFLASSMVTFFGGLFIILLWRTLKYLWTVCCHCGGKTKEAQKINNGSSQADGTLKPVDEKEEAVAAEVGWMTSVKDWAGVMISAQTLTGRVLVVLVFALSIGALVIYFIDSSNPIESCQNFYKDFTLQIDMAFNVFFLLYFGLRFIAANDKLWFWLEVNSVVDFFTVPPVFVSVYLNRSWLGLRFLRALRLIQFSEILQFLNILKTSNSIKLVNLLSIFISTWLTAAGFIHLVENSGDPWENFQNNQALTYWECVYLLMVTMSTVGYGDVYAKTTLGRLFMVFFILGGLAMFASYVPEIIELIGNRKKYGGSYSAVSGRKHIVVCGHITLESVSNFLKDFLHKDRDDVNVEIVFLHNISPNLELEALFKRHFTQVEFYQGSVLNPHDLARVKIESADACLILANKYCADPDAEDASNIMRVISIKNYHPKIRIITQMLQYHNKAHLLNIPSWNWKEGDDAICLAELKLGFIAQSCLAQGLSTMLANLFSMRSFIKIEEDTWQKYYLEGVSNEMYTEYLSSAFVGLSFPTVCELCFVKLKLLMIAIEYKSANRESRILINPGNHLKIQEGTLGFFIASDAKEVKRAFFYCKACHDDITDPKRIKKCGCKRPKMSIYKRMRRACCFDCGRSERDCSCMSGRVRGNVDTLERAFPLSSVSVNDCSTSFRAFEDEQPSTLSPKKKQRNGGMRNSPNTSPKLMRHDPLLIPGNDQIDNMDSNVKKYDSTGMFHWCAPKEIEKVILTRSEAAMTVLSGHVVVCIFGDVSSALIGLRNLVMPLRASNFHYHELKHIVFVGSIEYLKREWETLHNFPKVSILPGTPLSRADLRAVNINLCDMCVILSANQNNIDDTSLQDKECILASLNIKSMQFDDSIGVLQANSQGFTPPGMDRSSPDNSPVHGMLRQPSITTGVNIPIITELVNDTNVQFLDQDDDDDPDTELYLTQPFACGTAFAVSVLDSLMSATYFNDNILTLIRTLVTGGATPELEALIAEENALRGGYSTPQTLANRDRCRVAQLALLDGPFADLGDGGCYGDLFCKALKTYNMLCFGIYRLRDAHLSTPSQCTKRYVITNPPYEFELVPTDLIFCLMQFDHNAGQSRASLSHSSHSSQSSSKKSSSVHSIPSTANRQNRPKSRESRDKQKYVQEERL
# [19] = Metabolic stability in human liver microsomes assessed as parent compound remaining at 1 uM preincubated for 5 mins followed by NADPH addition and measured after 30 mins by LC-MS/MS analysis; assay type: ADME, Microsome; conditions: read-out: Stability
# [20] = Activation of rat BKca channel extracted from Xenopus laevis Oocytes by patch-clamp electrophysiology recordings; assay type: cell-based; conditions: Oocyte
Structure (SMILES),clearance [1] [mL/min/kg],Activity (Rattus norvegicus [2]) [%],Activity (Rattus norvegicus [3]) [%],half-life [4] [h],AUC(0-t) [5] [ng·h/mL],AUC(0-t) [6] [ng·h/mL],half-life [7] [h],Activity (Rattus norvegicus [8]) [%],Vd [9] [L/kg],Cmax [10] [ng/mL],bioavailability [11] [%],Tmax [12] [h],"remaining at 0.5 h, 1 µM [13] [%]",Drug metabolism [14],Papp at 4 h [15] [×10⁻⁶ cm/s],"remaining at 1 h, 1 µM [16] [%]","remaining at 1 h, 1 µM [17] [%]",EC50 [18] [nM],"remaining at 0.5 h, 1 µM [19] [%]",EC50 [20] [nM]
Cl.Nc1ccc(Oc2c(F)c(F)c(C(F)(F)F)c(F)c2F)c(O)c1,115,65,43,3.9,1450,344,4.5,48.5,13.2,61.5,23.5,4.2,,,,,,,,
Nc1ccc(Oc2c(F)c(F)c(C(F)(F)F)c(F)c2F)c(O)c1,,,,,,,,,,,,,34.6,metabolite_detected,41.1,4.8,5.8,120,97,280
